Laboratory results taken from patent publication US20240376085A1 (Janssen Pharmaceutica NV, priority 2021, published 2024).

Tests used:
IL-17A : IL-17RA binding = biological target: T1, IL-17A : IL-17RA binding (Homo sapiens, UniProt Q16552, K93Q); assay: IL-17A(FLAG-tagged):IL-17RA(His-tagged) binding disruption Eu-HTRF assay, Protocol 1; conditions: FLAG-IL-17A 2.5 nM at 2x final concentration; average if tested more than once
T1 construct: Name: IL-17A-Flag
Text: An antibody directed against the FLAG tag of IL-17A (SEQ ID NO: 1) is labeled with the HTRF donor chromophore (Europium-cryptate). IL-17A is present as a dimer that is “locked into” this quaternary structure due to the formation of loop-spanning […] disulfide bridges. The construct of IL-17RA used in the assay excludes the […] portion of the receptor and is fused to a C-terminal 10×His tag (SEQ ID NO:2). An antibody directed against the His tag of the IL-17RA chimera is labeled with the HTRF acceptor chromophore (“D2”). The fluorescence-resonance energy transfer (FRET) depends on the vicinity of the donor chromophore to the acceptor, and interruption of the binding between the IL-17A and IL-17RA causes the reduction/loss of FRET. Therefore, this assay allows to evaluate the compound effect on the binding IL-17A and IL-17RA by monitoring the fluorescence intensity of donor vs acceptor. The assay was run using either Protocol 1 or Protocol 2 as described below.
Protocol 1. 40 nl of 2-fold serial diluted compound solution for total 22 dilution points is added into each well of a 1536-well, white, low-volume, non-binding plate (Greiner #782904), then 2 μl of FLAG tagged IL-17A at 2× final concentration (2.5 nM) in solution of PBS+0.01% Triton-X100 is added to each well. The assay plate is briefly centrifuged then incubated for 1 h at rt. A mixed solution is prepared containing 2×5 nM 10HIS×IL-17RA, 2×2.5 nM Eu-anti-FLAG (CISBIO), 2×5 nM D2-anti-HIS (CISBIO) in PBS+0.01% Triton-X100+200 mM Potassium Fluoride (Sigma 60238) and 2 μl of mix is added to each well of the assay plate. The plate is briefly centrifuged then incubated for 2 h at rt. The HTRF intensities at the wavelength of donor (620 nm) and acceptor (665 nm) are measured using BMG Pherastar. The ratio between intensities at two wavelengths is calculated and plotted against the compound concentration and the data is fitted to a one-site competition model to yield IC50 of the compound.

[1] = test system: IL-17A-induced G-CSF production in human normal keratinocyte (NHK); assay: NHK assay: IL-17A-induced G-CSF production in normal human keratinocytes; type: cell-based; conditions: 24 h, IL-17A 5 ng/mL, average if tested more than once
Description: IL-17A acts directly on keratinocytes through binding to dimeric receptor IL-17RA/RC and drives the production of a number of inflammatory mediators known to be elevated in psoriasis lesional tissue. IL-17A small molecule inhibitors that block the IL-17A to interact with IL-17R would inhibit the IL-17A signaling in its targeted cells such as keratinocytes. The compound functional activity is evaluated for its impact on IL-17A-induced G-CSF production in human normal keratinocyte (NHK).
Adult normal human keratinocytes are cultured in keratinocyte growth medium (Lonza) in a flask till reaching ˜90% confluence, then cells are transferred to a 384-well plate at density of 3000-4000 cell/well. Recombinant human IL-17A (Gibco PHC9174) is pre-incubated with titrated compound or DMSO for 1 h at rt then added to the cell culture plate. The final concentration of IL-17A is 5 ng/mL and DMSO is 0.2%, in the culture containing 5% FBS. Cells are cultured/treated for 24 h at 37° C. Supernatants are collected and G-CSF production is measured through HTRF technology using Human G-CSF Kit (CisBio). G-CSF concentration was extrapolated from the standard curve and IC50 is determined using GraphPad Prism. Cell viability is also evaluated using CellTiter-Glo kit (Promega) and effect of compound on cell viability is compared to DMSO control.

T1 sequence (Q16552 with tags, fused parts or gaps K93Q): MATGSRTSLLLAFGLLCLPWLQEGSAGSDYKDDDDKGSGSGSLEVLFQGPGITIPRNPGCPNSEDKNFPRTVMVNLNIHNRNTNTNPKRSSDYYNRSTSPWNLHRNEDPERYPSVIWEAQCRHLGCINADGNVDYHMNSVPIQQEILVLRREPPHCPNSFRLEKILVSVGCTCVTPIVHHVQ

| Compound | IC50 (IL-17A : IL-17RA binding) [µM] | IC50 ([1]; Homo sapiens, Keratinocyte) [µM] | IC50 [1] [µM] |
| --- | --- | --- | --- |
| C[C@@H](NC(=O)CCC(F)(F)F)c1ccc2[nH]c([C@@H](NC(=O)[C@H]3CC[C@@H]3CF)C3CCC(F)(F)CC3)nc2c1 (single isomer, unassigned) [Example 114] | > 0.1 | > 0.1 |  |
| C[C@@H](NC(=O)CCC(F)(F)F)c1ccc2[nH]c([C@@H](NC(=O)c3cnn(CC4CCC4(F)F)n3)C3CCC(F)(F)CC3)nc2c1 (stereo partly drawn) [Example 87, 2-((2,2-Difluorocyclobutyl)methyl)-N—((S)-(4,4-difluorocyclohexyl)(5-((R)-1-(4,4,4-trifluorobutanamido)ethyl)-1H-benzo[d]imidazol-2-yl)methyl)-2H-1,2,3-triazole-4-carboxamide] | > 0.1 | > 0.1 |  |
| CC(C)c1ccsc1C(=O)N[C@H](c1nc2cc([C@@H](C)NC(=O)CCC(F)(F)F)ccc2[nH]1)C1CCC(F)(F)CC1 [Example 205, N—((S)-(4,4-Difluorocyclohexyl)(5-((R)-1-(4,4,4-trifluorobutanamido)ethyl)-1H-benzo[d]imidazol-2-yl)methyl)-3-isopropylthiophene-2-carboxamide] | < 0.05 | 0.05 to 0.1 |  |
| CC(C)c1oncc1C(=O)N[C@H](c1nc2cc([C@@H](C)NC(=O)CCC(F)(F)F)ccc2[nH]1)C1CCC(F)(F)CC1 [Example 202, N—((S)-(4,4-Difluorocyclohexyl)(5-((R)-1-(4,4,4-trifluorobutanamido)ethyl)-1H-benzo[d]imidazol-2-yl)methyl)-5-isopropylisoxazole-4-carboxamide] | < 0.05 | < 0.05 |  |
| C[C@@H](NC(=O)CCC(F)(F)F)c1ccc2nc([C@@H](NC(=O)c3cnn(C)c3C(F)F)C3CCC(F)(F)CC3)[nH]c2c1 [Example 59, N—((S)-(4,4-Difluorocyclohexyl)(6-((R)-1-(4,4,4-trifluorobutanamido)ethyl)-1H-benzo[d]imidazol-2-yl)methyl)-5-(difluoromethyl)-1-methyl-1H-pyrazole-4-carboxamide] | > 0.1 | > 0.1 |  |
| C[C@@H](NC(=O)CCC(F)(F)F)c1ccc2nc([C@@H](NC(=O)c3cnnn3CCC(C)(C)C)C3CCC(F)(F)CC3)[nH]c2c1 [Example 68, N—((S)-(4,4-Difluorocyclohexyl)(6-((R)-1-(4,4,4-trifluorobutanamido)ethyl)-1H-benzo[d]imidazol-2-yl)methyl)-1-(3,3-dimethylbutyl)-1H-1,2,3-triazole-5-carboxamide] | > 0.1 | > 0.1 |  |
| CC(C)n1nccc1C(=O)N[C@@H](CC1(C(F)(F)F)CC1)c1nc2ccc([C@H](NC(=O)CC3CC(F)(F)C3)C3CC3)cc2[nH]1 [Example 243, N—((S)-1-(6-((R)-Cyclopropyl(2-(3,3-difluorocyclobutyl)acetamido)methyl)-1H-benzo[d]imidazol-2-yl)-2-(1-(trifluoromethyl)cyclopropyl)ethyl)-1-isopropyl-1H-pyrazole-5-carboxamide] | > 0.1 | 0.05 to 0.1 |  |
| C[C@@H](NC(=O)CCC(F)(F)F)c1ccc2[nH]c([C@@H](NC(=O)C3CC3)C3CCC(F)(F)CC3)nc2c1 [Example 94, N—((S)-(4,4-Difluorocyclohexyl)(5-((R)-1-(4,4,4-trifluorobutanamido)ethyl)-1H-benzo[d]imidazol-2-yl)methyl)cyclopropanecarboxamide] | > 0.1 | > 0.1 |  |
| C[C@@H](NC(=O)CCC(F)(F)F)c1ccc2[nH]c([C@@H](NC(=O)c3cnnn3CC3CCC3(F)F)C3CCC(F)(F)CC3)nc2c1 (stereo partly drawn) [Example 86, 1-((2,2-Difluorocyclobutyl)methyl)-N—((S)-(4,4-difluorocyclohexyl)(5-((R)-1-(4,4,4-trifluorobutanamido)ethyl)-1H-benzo[d]imidazol-2-yl)methyl)-1H-1,2,3-triazole-5-carboxamide] | > 0.1 | > 0.1 |  |
| C[C@@H](NC(=O)CCC(F)(F)F)c1ccc2[nH]c([C@@H](NC(=O)c3nnc(CCC(F)(F)F)o3)C3CCC(F)(F)CC3)nc2c1 [Example 187, N—((S)-(4,4-Difluorocyclohexyl)(5-((R)-1-(4,4,4-trifluorobutanamido)ethyl)-1H-benzo[d]imidazol-2-yl)methyl)-5-(3,3,3-trifluoropropyl)-1,3,4-oxadiazole-2-carboxamide] |  | > 0.1 |  |

Second part, led by results:

| IC50 (IL-17A : IL-17RA binding) [µM] | Compound | IC50 ([1]; Homo sapiens, Keratinocyte) [µM] | IC50 [1] [µM] |
| --- | --- | --- | --- |
| < 0.05 | CC(CC(=O)N[C@@H](c1ccc2nc([C@H](CC(C)(C)C(F)(F)F)NC(=O)c3nonc3C3CC3)[nH]c2c1)C1CC1)C(F)(F)F (single isomer, unassigned) [Example 181, 4-Cyclopropyl-N—((S)-1-(6-((R)-cyclopropyl((R*)-4,4,4-trifluoro-3-methylbutanamido)methyl)-1H-benzo[d]imidazol-2-yl)-4,4,4-trifluoro-3,3-dimethylbutyl)-1,2,5-oxadiazole-3-carboxamide] | < 0.05 |  |
| > 0.1 | CCCC(NC(=O)CCC(F)(F)F)c1ccc2[nH]c([C@@H](NC(=O)c3ccnn3C)C3CCC(F)(F)CC3)nc2c1 (single isomer, unassigned) [Example 50, N—((S)-(4,4-Difluorocyclohexyl)(5-((S*)-1-(4,4,4-trifluorobutanamido)butyl)-1H-benzo[d]imidazol-2-yl)methyl)-1-methyl-1H-pyrazole-5-carboxamide] | > 0.1 |  |
| > 0.1 | CC(CC(=O)N[C@H](C)c1ccc2nc([C@@H](NC(=O)c3ccnn3CCC(F)(F)F)C3CCC(F)(F)CC3)[nH]c2c1)C(F)(F)F (single isomer, unassigned) [Example 138, N—((S)-(4,4-Difluorocyclohexyl)(6-((R)-1-((S*)-4,4,4-trifluoro-3-methylbutanamido)ethyl)-1H-benzo[d]imidazol-2-yl)methyl)-1-(3,3,3-trifluoropropyl)-1H-pyrazole-5-carboxamide] |  | 0.05 to 0.1 |
| > 0.1 | CC(NC(=O)CCC(F)(F)F)c1ccc2nc([C@H](CC(C)(C)C(F)(F)F)NC(=O)c3ccnn3C(C)C)[nH]c2c1 (single isomer, unassigned) [Example 231, 1-Isopropyl-N—((S)-4,4,4-trifluoro-3,3-dimethyl-1-(6-((S*)-1-(4,4,4-trifluorobutanamido)ethyl)-1H-benzo[d]imidazol-2-yl)butyl)-1H-pyrazole-5-carboxamide] | > 0.1 |  |
| > 0.1 | CC(C)n1nccc1C(=O)NC(COC(C)(C)C(C)(F)F)c1nc2ccc([C@H](NC(=O)CC3CC(F)(F)C3)C3CC3)cc2[nH]1 (single isomer, unassigned) [Example 149, N—((R*)-1-(6-((R)-Cyclopropyl(2-(3,3-difluorocyclobutyl)acetamido)methyl)-1H-benzo[d]imidazol-2-yl)-2-((3,3-difluoro-2-methylbutan-2-yl)oxy)ethyl)-1-isopropyl-1H-pyrazole-5-carboxamide] | < 0.05 |  |
| > 0.1 | C[C@@H](NC(=O)CCC(F)(F)F)c1ccc2[nH]c([C@@H](NC(=O)c3cnn(CCOC(F)F)c3)C3CCC(F)(F)CC3)nc2c1 [Example 27, N—[(S)-(4,4-Difluorocyclohexyl)-[6-[(1R)-1-(4,4,4-trifluorobutanoylamino)ethyl]-1H-benzimidazol-2-yl]methyl]-1-[2-(difluoromethoxy)ethyl]pyrazole-4-carboxamide] | > 0.1 |  |
